Reference: patent US9855265B2, “Methods for treating cancer with TrkA receptor tyrosine kinase antagonists” (VM Oncology LLC, priority 2014, dated 2018)
pIC50: −log10 of the molar value.

Assays:
PKA = PKA (Homo sapiens, UniProt P17612); assay: radiometric kinase assay, other kinases: PKA; format: biochemical; settings: duplicate
Description: (§1) Compound inhibition in a radiometric based mixed micelle assay: In a final reaction volume of 25 μL, TrkA (h) ([…]) is incubated with the kinase reaction buffer (20 mM HEPES (pH 7.5), 10 mM MgCl2, 1 mM EGTA, 0.02% Brij 35, 0.02 mg/ml BSA, 0.1 mM Na3VO4, 2 mM DTT, 1% DMSO), 0.2 mg/ml substrate PolyEY(4:1) and […], and [^33P-ATP](specific activity approx. 500 cpm/pmol, concentration as required). The reaction is initiated by the addition of the MgATP mix. After incubation for at least 40 minutes at room temperature, the reaction is stopped by the addition of 5 μL of a 3% phosphoric acid solution. 10 μL of the reaction is then spotted onto a P30 filtermat and washed three times for 5 minutes in 75 mM phosphoric acid and once in methanol prior to drying and scintillation counting. TrkA: Recombinant Human Cytoplasmic Domain (amino acids 441-796), Histidine-tagged, expressed in insect cells. Activated in vitro via auto-phosphorylation. Mw=42.8 kDa. Substrates for kinases: poly(EY) for TRKA; poly(EY)(4:1) with 2 mM MnCl2, average Mw=16 kDa Standard conditions (unless otherwise specified): 30 nM TRKA, 0.2 mg/ml poly(EY)+2 mM MnCl2, and 10 μM ([γ-^33P]) ATP. Using the similar assay condition with other kinases of recombinant human cytoplasmic domain, the activities of other kinases could be also measured.

PKCtheta = PKCtheta (Homo sapiens, UniProt Q04759); assay: radiometric kinase assay, other kinases: PKCtheta; format: biochemical; settings: duplicate
Description: as §1

TrkC = TrkC (Homo sapiens, UniProt Q16288); assay: live whole cell based functional assay, NT3 stimulated TrkC activation; set-up: expressed in transfected cells; settings: triplicate
JNK3 = JNK3 (Homo sapiens, UniProt P53779); assay: radiometric kinase assay, other kinases: JNK3; format: biochemical; settings: duplicate
Description: as §1

LCK = LCK (Homo sapiens, UniProt P06239); assay: radiometric kinase assay, other kinases: LCK; format: biochemical; settings: duplicate
Description: as §1

IGF-1R = biological target: T1, IGF-1R (Homo sapiens, UniProt P08069); assay: radiometric kinase assay, other kinases: IGF-1R; format: biochemical; settings: duplicate
T1 construct: other kinases of recombinant human cytoplasmic domain
Description: as §1

CDK2/cyclinA = CDK2/cyclinA (Homo sapiens, UniProt P24941); assay: radiometric kinase assay, other kinases: CDK2/cyclinA; format: biochemical; settings: duplicate
Description: as §1

BTK = BTK (Homo sapiens, UniProt Q06187); assay: radiometric kinase assay, other kinases: BTK; format: biochemical; settings: duplicate
Description: as §1

FGFR1 = biological target: T2, FGFR1 (Homo sapiens, UniProt P11362); assay: radiometric kinase assay, other kinases: FGFR1; format: biochemical; settings: duplicate
T2 construct: other kinases of recombinant human cytoplasmic domain
Description: as §1

c-Src = c-Src (Homo sapiens, UniProt P12931); assay: radiometric kinase assay, other kinases: c-Src; format: biochemical; settings: duplicate
Description: as §1

[1] = biological target: other more than 400 kinases; assay: radiometric kinase assay, kinase panel; format: biochemical, human; settings: duplicate
Description: as §1

CDK2/cyclinE = CDK2/cyclinE (Homo sapiens, UniProt P24941); assay: radiometric kinase assay, other kinases: CDK2/cyclinE; format: biochemical; settings: duplicate
Description: as §1

FLT3 (CD) = biological target: T3, FLT3 (CD) (Homo sapiens, UniProt P36888); assay: radiometric kinase assay, other kinases: FLT3 (CD); format: biochemical; settings: duplicate
T3 construct: other kinases of recombinant human cytoplasmic domain
Description: as §1

AKT1 = AKT1 (Homo sapiens, UniProt P31749); assay: radiometric kinase assay, other kinases: AKT1; format: biochemical; settings: duplicate
Description: as §1

FMS = biological target: T4, FMS (Homo sapiens, UniProt P07333); assay: radiometric kinase assay, other kinases: FMS; format: biochemical; settings: duplicate
T4 construct: other kinases of recombinant human cytoplasmic domain
Description: as §1

VEGFR3/FLT4 = biological target: T5, VEGFR3/FLT4 (Homo sapiens, UniProt P35916); assay: radiometric kinase assay, other kinases: VEGFR3/FLT4; format: biochemical; settings: duplicate
T5 construct: other kinases of recombinant human cytoplasmic domain
Description: as §1

PKD2/PRKD2 = PKD2/PRKD2 (Homo sapiens, UniProt Q9BZL6); assay: radiometric kinase assay, other kinases: PKD2/PRKD2; format: biochemical; settings: duplicate
Description: as §1

[2] = system: NCI-N87 human stomach cancer cells; assay: Cell Viability and Proliferation Assay, NCI-N87; format: cell-based; settings: after 24 incubation
Description: Cell Viability and Proliferation Assays. To assess the chemosensitivity of tumor cells, cell viability is measured by CellTiter-Glo® Luminescent Cell Viability Assay (Promega; Wis., USA) per the manufacturer's instruction. Briefly, 5×10^3 to 7×10^5 cells/ml are cultured in sterile 96-well plates in the presence of increasing concentrations of the drugs (test article, 0 to 100 μM), or vehicle in RPMI medium. The plates are then incubated for 24 to 96 h, and then 100 μl of CellTiter-Glo reagent is added to lyse the cells. After a 10-min incubation at room temperature, the luminescence is recorded in a luminometer with an integration time of 1 s per well. The luminescence signals for the drug-treated cells are normalized by the luminescence signal obtained from vehicle-treated cells. As an alternative method to quantitate cell viability, the trypan blue exclusion dye method was used. Vehicle- or drug-treated cells were assayed by adding trypan blue solution (0.4% in phosphate-buffered saline [PBS]) to the culture medium. After 3 min, the number of dead cells that retained the dye is compared to the total number of cells to calculate cell viability. GraphPad Prism 5 software is used to calculate IC50 and plot effect-dose curve of drugs. Multiplate reader: EnVision 2104 (PerkinElmer). % of control variability=100*[(X(drug_treated)−L(baseline))/(H(vehicle_control)−L(baseline))]. […]

VEGFR2/KDR = biological target: T6, VEGFR2/KDR (Homo sapiens, UniProt P35968); assay: radiometric kinase assay, other kinases: VEGFR2/KDR; format: biochemical; settings: duplicate
T6 construct: other kinases of recombinant human cytoplasmic domain
Description: as §1

[3] = system: CCI rats, mechanical allodynia; settings: CCI rats, 150 mg/kg oral dose
Description: Chronic Constriction Injury (CCI) Model of Neuropathic Pain in Rats. […] Chronic constriction injury of the sciatic nerve was produced by tying four loose ligatures around the left sciatic nerve according to the method of Bennett and Xie. […] Calibrated von Frey filaments were used to determine the lowest mechanical (tactile) threshold required to evoke a brisk paw withdrawal reflex in the rat hindpaws. Rats were allowed to acclimatize in wire mesh cages for 15-20 min prior to von Frey testing. Assessment of paw withdrawal thresholds (PWTs) using von Frey filaments was undertaken prior to CCI-surgery (pre-surgery baseline on day 0). Before the drug dosing on day 14, the pre-dose baseline was recorded for each rat. […] Drug-naïve CCI-rats (n=4-6 per group) were used. The oral vehicle was 0.5% CMC-Na/0.1% Tween 80 in distilled water. The positive control gabapentin was dissolved in the vehicle and orally given at 100 mg/kg (by oral gavage). Test compound was suspended in the vehicle and orally given at 50 mg/kg and 100 mg/kg.

MEK2 = MEK2 (Homo sapiens, UniProt P36507); assay: radiometric kinase assay, other kinases: MEK2; format: biochemical; settings: duplicate
Description: as §1

PKG1a = PKG1a (Homo sapiens, UniProt Q13976); assay: radiometric kinase assay, other kinases: PKG1a; format: biochemical; settings: duplicate
Description: as §1

P38b/MAPK11 = P38b/MAPK11 (Homo sapiens, UniProt Q15759); assay: radiometric kinase assay, other kinases: P38b/MAPK11; format: biochemical; settings: duplicate
Description: as §1

TEC = TEC (Homo sapiens, UniProt P42680); assay: radiometric kinase assay, other kinases: TEC; format: biochemical; settings: duplicate
Description: as §1

PKG1b = PKG1b (Homo sapiens, UniProt Q13976); assay: radiometric kinase assay, other kinases: PKG1b; format: biochemical; settings: duplicate
Description: as §1

Chain of BTK (Q06187 whole entry): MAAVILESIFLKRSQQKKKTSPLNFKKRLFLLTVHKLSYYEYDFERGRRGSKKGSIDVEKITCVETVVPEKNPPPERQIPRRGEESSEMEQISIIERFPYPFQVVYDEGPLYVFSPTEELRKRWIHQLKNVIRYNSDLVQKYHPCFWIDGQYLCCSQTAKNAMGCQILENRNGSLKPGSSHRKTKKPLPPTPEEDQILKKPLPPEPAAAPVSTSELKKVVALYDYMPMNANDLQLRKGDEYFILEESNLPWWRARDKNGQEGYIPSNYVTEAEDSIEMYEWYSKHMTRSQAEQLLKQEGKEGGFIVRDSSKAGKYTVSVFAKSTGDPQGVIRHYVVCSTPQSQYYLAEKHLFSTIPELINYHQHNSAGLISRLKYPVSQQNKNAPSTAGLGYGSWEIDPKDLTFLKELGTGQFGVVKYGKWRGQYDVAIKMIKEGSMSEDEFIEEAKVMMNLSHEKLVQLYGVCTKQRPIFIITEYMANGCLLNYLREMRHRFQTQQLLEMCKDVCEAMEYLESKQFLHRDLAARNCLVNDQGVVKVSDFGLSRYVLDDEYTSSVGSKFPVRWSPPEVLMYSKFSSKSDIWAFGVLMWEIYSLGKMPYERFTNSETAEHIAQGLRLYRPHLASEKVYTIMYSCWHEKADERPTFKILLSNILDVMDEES
T5 sequence (P35916 797-1363 limits assumed): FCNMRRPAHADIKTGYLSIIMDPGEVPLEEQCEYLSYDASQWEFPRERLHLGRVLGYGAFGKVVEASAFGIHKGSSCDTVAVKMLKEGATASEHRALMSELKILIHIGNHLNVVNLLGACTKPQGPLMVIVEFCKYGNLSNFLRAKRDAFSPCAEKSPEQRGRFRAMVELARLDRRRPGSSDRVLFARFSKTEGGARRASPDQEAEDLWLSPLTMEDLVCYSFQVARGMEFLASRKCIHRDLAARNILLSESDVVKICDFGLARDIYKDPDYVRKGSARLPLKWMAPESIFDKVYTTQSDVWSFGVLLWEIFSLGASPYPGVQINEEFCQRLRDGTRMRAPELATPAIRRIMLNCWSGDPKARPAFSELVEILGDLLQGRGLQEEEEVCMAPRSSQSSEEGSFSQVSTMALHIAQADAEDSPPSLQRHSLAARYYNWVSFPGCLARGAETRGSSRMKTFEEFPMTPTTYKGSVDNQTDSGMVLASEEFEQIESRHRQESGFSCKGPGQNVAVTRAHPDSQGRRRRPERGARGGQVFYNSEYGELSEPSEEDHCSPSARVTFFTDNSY
T3 sequence (P36888 564-993 limits assumed): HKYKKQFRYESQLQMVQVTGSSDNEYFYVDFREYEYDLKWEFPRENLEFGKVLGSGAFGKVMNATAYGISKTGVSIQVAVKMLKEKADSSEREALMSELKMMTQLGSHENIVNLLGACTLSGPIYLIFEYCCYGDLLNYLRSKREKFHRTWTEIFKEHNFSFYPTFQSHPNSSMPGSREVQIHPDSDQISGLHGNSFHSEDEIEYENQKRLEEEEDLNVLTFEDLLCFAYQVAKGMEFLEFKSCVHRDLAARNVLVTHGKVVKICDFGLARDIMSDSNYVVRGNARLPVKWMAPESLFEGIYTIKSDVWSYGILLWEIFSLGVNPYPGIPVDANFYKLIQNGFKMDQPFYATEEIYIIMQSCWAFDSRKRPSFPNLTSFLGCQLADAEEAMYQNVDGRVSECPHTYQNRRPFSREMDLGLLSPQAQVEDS
Chain of TrkC (Q16288 32-839): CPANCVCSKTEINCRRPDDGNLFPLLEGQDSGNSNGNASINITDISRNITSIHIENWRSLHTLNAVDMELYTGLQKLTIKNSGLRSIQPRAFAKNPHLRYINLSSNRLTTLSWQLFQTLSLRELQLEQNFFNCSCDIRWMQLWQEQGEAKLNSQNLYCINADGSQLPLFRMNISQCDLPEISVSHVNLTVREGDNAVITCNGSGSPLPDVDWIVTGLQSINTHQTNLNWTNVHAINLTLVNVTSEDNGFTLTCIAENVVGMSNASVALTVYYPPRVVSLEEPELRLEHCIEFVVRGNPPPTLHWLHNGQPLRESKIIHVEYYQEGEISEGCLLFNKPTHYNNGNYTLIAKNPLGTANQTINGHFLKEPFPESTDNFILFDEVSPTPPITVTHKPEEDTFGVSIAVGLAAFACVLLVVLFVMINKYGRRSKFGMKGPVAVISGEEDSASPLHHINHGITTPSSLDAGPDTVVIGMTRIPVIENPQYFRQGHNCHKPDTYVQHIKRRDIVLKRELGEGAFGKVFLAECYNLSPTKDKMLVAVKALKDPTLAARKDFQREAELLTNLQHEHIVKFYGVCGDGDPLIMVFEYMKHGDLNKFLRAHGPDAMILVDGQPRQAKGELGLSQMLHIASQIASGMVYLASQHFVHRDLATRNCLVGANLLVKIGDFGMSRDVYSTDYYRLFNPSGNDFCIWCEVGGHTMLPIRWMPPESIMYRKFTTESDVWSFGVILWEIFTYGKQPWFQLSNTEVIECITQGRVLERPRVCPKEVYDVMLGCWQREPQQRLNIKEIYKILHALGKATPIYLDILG
T4 sequence (P07333 539-972 limits assumed): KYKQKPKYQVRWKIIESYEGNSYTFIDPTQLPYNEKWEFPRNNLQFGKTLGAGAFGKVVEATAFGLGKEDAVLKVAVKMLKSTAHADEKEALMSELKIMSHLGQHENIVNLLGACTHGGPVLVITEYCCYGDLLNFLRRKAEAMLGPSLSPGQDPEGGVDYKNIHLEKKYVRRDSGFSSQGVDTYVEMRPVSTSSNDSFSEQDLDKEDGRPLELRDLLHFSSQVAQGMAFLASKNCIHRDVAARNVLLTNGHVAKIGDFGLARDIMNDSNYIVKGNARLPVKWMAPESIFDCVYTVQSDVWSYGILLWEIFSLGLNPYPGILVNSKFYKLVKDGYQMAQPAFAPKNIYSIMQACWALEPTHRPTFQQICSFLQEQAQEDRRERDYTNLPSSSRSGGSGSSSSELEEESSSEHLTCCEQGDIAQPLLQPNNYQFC
Chain of TEC (P42680 whole entry): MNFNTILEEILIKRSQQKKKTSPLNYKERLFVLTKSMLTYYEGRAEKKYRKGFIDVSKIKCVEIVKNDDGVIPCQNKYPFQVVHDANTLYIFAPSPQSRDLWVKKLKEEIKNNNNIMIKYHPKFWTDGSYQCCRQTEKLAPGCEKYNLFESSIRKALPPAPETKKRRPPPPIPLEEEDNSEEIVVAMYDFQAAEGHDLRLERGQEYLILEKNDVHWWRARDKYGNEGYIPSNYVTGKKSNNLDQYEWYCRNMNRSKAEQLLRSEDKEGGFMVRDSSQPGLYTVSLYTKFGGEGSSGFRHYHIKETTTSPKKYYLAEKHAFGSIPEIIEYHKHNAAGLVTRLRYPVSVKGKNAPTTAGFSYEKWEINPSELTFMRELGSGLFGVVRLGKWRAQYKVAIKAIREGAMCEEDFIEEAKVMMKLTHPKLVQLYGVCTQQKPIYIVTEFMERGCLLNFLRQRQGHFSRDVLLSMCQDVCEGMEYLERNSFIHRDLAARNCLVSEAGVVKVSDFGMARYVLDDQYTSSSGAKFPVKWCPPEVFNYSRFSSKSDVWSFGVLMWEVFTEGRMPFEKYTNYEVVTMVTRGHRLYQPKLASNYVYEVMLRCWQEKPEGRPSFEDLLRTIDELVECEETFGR
T6 sequence (P35968 786-1356 limits assumed): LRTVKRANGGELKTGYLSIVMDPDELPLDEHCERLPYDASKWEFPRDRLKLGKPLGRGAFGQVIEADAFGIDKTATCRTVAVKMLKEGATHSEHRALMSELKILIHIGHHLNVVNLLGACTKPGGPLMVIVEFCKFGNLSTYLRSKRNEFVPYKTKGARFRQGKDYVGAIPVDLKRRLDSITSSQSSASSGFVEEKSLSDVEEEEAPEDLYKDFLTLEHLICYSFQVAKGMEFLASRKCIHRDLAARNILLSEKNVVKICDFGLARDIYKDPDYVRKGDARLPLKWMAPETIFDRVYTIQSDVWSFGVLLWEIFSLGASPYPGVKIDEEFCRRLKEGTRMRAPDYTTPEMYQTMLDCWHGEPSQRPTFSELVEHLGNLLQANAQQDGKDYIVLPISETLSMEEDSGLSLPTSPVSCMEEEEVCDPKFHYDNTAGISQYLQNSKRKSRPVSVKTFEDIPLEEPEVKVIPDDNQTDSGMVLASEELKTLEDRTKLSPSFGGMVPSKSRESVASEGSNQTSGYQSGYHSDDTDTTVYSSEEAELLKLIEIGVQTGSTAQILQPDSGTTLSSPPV
Chain of MEK2 (P36507 whole entry): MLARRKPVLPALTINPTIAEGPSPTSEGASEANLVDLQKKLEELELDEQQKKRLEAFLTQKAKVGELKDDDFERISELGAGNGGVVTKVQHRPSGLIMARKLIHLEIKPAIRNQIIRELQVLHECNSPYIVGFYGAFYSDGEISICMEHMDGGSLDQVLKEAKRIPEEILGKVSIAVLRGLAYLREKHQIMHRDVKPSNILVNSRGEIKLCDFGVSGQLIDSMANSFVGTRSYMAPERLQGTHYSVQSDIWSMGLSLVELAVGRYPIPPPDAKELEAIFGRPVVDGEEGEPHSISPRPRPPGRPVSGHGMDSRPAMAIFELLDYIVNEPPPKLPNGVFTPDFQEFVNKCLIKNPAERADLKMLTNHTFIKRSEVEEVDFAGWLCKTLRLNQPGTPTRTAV
Chain of LCK (P06239 whole entry): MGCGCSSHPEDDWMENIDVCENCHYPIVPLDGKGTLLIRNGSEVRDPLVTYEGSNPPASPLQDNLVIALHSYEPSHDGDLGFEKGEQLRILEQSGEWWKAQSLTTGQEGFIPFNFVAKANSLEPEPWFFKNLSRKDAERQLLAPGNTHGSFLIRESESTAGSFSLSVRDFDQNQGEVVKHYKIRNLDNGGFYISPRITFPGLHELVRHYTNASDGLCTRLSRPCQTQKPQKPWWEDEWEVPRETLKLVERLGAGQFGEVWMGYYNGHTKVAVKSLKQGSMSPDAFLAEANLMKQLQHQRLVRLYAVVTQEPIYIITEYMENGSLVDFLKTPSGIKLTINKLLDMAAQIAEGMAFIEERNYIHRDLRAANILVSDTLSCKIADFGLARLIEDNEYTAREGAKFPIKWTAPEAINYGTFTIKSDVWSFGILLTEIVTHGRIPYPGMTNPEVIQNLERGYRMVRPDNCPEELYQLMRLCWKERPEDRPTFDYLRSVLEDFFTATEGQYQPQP

Nc1c(N2CCN(C3CCCCC3)CC2)cc(Nc2ccc(C(=O)O)cc2)c2c1C(=O)c1ccccc1C2=O [Compound 12, 4-{[4-amino-3-(4-cyclohexylpiperazin-1-yl)-9,10-dioxo-9,10-dihydroanthracen-1-yl]amino}benzoic acid]
about 48%: relative analgesic effect compared to morphine (HCl) at 3 mg/kg, s.c. [3]
~5.15: pIC50 [2]
< 5.00: pIC50 (PKA) | pIC50 (PKCtheta) | pIC50 (TrkC) | pIC50 (JNK3) | pIC50 (LCK) | pIC50 (IGF-1R) | pIC50 (CDK2/cyclinA) | pIC50 (BTK) | pIC50 (FGFR1) | pIC50 (c-Src) | pIC50 [1] | pIC50 (CDK2/cyclinE) | pIC50 (FLT3 (CD)) | pIC50 (AKT1) | pIC50 (FMS) | pIC50 (VEGFR3/FLT4) | pIC50 (PKD2/PRKD2) | pIC50 (VEGFR2/KDR) | pIC50 (MEK2) | pIC50 (PKG1a) | pIC50 (P38b/MAPK11) | pIC50 (TEC) | pIC50 (PKG1b)
